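Grown in 96-well plates, cells were treated for 48 hours with each compound at five concentrations. Insufficient inhibition: endpoint recorded as highest concentration tested. TGI: concentration producing complete growth inhibition.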
What was measured:
Test in all cases: NCI-60 cell line screen, 48 h
[1] = tested on: 786-0 renal
[2] = tested on: A498 renal
[3] = tested on: A549 NSCLC
[4] = tested on: ACHN renal
[5] = tested on: BT-549 breast
[6] = tested on: CAKI-1 renal
[7] = tested on: CCRF-CEM leukemia
[8] = tested on: COLO 205 colon
[9] = tested on: DU-145 prostate
[10] = tested on: EKVX NSCLC
[11] = tested on: HCC-2998 colon
[12] = tested on: HCT-116 colon
[13] = tested on: HCT-15 colon
[14] = tested on: HL-60(TB) leukemia
[15] = tested on: HOP-62 NSCLC
[16] = tested on: HS 578T breast
[17] = tested on: HT29 colon
[18] = tested on: IGROV1 ovarian
[19] = tested on: K-562 leukemia
[20] = tested on: KM12 colon
[21] = tested on: LOX IMVI melanoma
[22] = tested on: M14 melanoma
[23] = tested on: MALME-3M melanoma
[24] = tested on: MCF7 breast
[25] = tested on: MDA-MB-231 breast
[26] = tested on: MDA-MB-435
[27] = tested on: MDA-N
[28] = tested on: MOLT-4 leukemia
[29] = tested on: NCI-H226 lung
[30] = tested on: NCI-H23 lung
[31] = tested on: NCI-H460 lung
[32] = tested on: NCI-H522 lung
[33] = tested on: NCI/ADR-RES ovarian
[34] = tested on: OVCAR-3 ovarian
[35] = tested on: OVCAR-5 ovarian
[36] = tested on: OVCAR-8 ovarian
[37] = tested on: PC-3 prostate
[38] = tested on: RPMI-8226 leukemia
[39] = tested on: SF-268 CNS
[40] = tested on: SF-295 CNS
[41] = tested on: SF-539 CNS
[42] = tested on: SK-MEL-2 melanoma
[43] = tested on: SK-MEL-28 melanoma
[44] = tested on: SK-MEL-5 melanoma
[45] = tested on: SK-OV-3 ovarian
[46] = tested on: SN12C renal
[47] = tested on: SNB-19 CNS
[48] = tested on: SNB-75 CNS
[49] = tested on: SR leukemia
[50] = tested on: SW-620 colon
[51] = tested on: T-47D breast
[52] = tested on: TK-10 renal
[53] = tested on: U251 CNS
[54] = tested on: UACC-257 melanoma
[55] = tested on: UACC-62 melanoma
[56] = tested on: UO-31 renal
[57] = tested on: OVCAR-4 ovarian
[58] = tested on: RXF 393 renal

With O=C1OC2C=CCC1C2 (centres undefined) the TGI [1] was > 100 µM, the TGI [2] was > 100 µM and the TGI [3] was > 100 µM. For the same molecule, the TGI [4] was > 100 µM, the TGI [5] was > 100 µM and the TGI [6] was > 100 µM. For the same molecule, the TGI [7] was > 100 µM, the TGI [8] was > 100 µM and the TGI [9] was > 100 µM. For the same molecule, the TGI [10] was > 100 µM, the TGI [11] was > 100 µM and the TGI [12] was > 100 µM. The TGI [13] was > 100 µM, the TGI [14] was > 100 µM and the TGI [15] was > 100 µM. For the same molecule, the TGI [16] was > 100 µM, the TGI [17] was > 100 µM and the TGI [18] was > 100 µM. The TGI [19] was > 100 µM, the TGI [20] was > 100 µM and the TGI [21] was > 100 µM. For the same molecule, the TGI [22] was > 100 µM, the TGI [23] was > 100 µM and the TGI [24] was > 100 µM. For the same molecule, the TGI [25] was > 100 µM, the TGI [26] was > 100 µM and the TGI [27] was > 100 µM. For the same molecule, the TGI [28] was > 100 µM, the TGI [29] was > 100 µM and the TGI [30] was > 100 µM. The TGI [31] was > 100 µM, the TGI [32] was > 100 µM and the TGI [33] was > 100 µM. For the same molecule, the TGI [34] was > 100 µM, the TGI [35] was > 100 µM and the TGI [36] was > 100 µM. The TGI [37] was > 100 µM, the TGI [38] was > 100 µM and the TGI [39] was > 100 µM. The TGI [40] was > 100 µM, the TGI [41] was > 100 µM and the TGI [42] was > 100 µM. The TGI [43] was > 100 µM, the TGI [44] was > 100 µM and the TGI [45] was > 100 µM. The TGI [46] was > 100 µM, the TGI [47] was > 100 µM and the TGI [48] was > 100 µM. The TGI [49] was > 100 µM, the TGI [50] was > 100 µM and the TGI [51] was > 100 µM. The TGI [52] was > 100 µM, the TGI [53] was > 100 µM and the TGI [54] was > 100 µM. For the same molecule, the TGI [55] was > 100 µM and the TGI [56] was > 100 µM.
With CC(=O)OCC1OC(Nc2ccc3nc(C)n(-c4ccccc4)c(=O)c3c2)C(OC(C)=O)C(OC(C)=O)C1OC(C)=O (centres undefined) the TGI [1] was > 50 µM, the TGI [2] was > 50 µM and the TGI [4] was > 50 µM. For the same molecule, the TGI [5] was > 50 µM, the TGI [6] was > 50 µM and the TGI [8] was > 50 µM. For the same molecule, the TGI [9] was > 50 µM, the TGI [10] was > 50 µM and the TGI [11] was > 50 µM. For the same molecule, the TGI [12] was > 50 µM, the TGI [13] was > 50 µM and the TGI [14] was > 50 µM. The TGI [15] was > 50 µM, the TGI [16] was > 50 µM and the TGI [17] was > 50 µM. The TGI [18] was > 50 µM, the TGI [19] was > 50 µM and the TGI [20] was > 50 µM. The TGI [21] was > 50 µM, the TGI [23] was > 50 µM and the TGI [24] was > 50 µM. For the same molecule, the TGI [25] was > 50 µM, the TGI [26] was > 50 µM and the TGI [27] was > 50 µM. The TGI [28] was > 50 µM, the TGI [29] was > 50 µM and the TGI [30] was > 50 µM. The TGI [31] was > 50 µM, the TGI [32] was > 50 µM and the TGI [33] was > 50 µM. The TGI [34] was > 50 µM, the TGI [57] was > 50 µM and the TGI [35] was > 50 µM. The TGI [36] was > 50 µM, the TGI [37] was > 50 µM and the TGI [38] was 20.4 µM. The TGI [58] was > 50 µM, the TGI [39] was > 50 µM and the TGI [40] was > 50 µM. The TGI [42] was > 50 µM, the TGI [43] was > 50 µM and the TGI [44] was > 50 µM. The TGI [46] was > 50 µM, the TGI [47] was > 50 µM and the TGI [48] was > 50 µM. For the same molecule, the TGI [49] was > 50 µM, the TGI [50] was > 50 µM and the TGI [51] was > 50 µM. For the same molecule, the TGI [52] was > 50 µM, the TGI [53] was > 50 µM and the TGI [54] was > 50 µM. The TGI [55] was > 50 µM and the TGI [56] was > 50 µM.
In the case of CCCCNC(=O)c1cc(S(=O)(=O)n2cc[nH]c2=O)c(SC)cc1Cl, the TGI [1] is reported as > 100 µM, the TGI [2] is reported as 97 µM and the TGI [3] is reported as > 100 µM. For the same molecule, the TGI [4] was > 100 µM, the TGI [5] was > 100 µM and the TGI [6] was > 100 µM. The TGI [7] was > 100 µM, the TGI [8] was > 100 µM and the TGI [9] was > 100 µM. For the same molecule, the TGI [10] was > 100 µM, the TGI [11] was > 100 µM and the TGI [12] was > 100 µM. The TGI [13] was > 100 µM, the TGI [14] was > 100 µM and the TGI [15] was > 100 µM. For the same molecule, the TGI [16] was > 100 µM, the TGI [17] was > 100 µM and the TGI [18] was > 100 µM. The TGI [19] was > 100 µM, the TGI [20] was > 100 µM and the TGI [21] was > 100 µM. For the same molecule, the TGI [22] was > 100 µM, the TGI [23] was > 100 µM and the TGI [24] was > 100 µM. The TGI [25] was > 100 µM, the TGI [26] was > 100 µM and the TGI [27] was > 100 µM. The TGI [28] was > 100 µM, the TGI [30] was > 100 µM and the TGI [31] was > 100 µM. For the same molecule, the TGI [32] was > 100 µM, the TGI [33] was > 100 µM and the TGI [34] was > 100 µM. For the same molecule, the TGI [57] was > 100 µM, the TGI [35] was > 100 µM and the TGI [36] was > 100 µM. The TGI [37] was > 100 µM, the TGI [38] was > 100 µM and the TGI [58] was > 100 µM. For the same molecule, the TGI [40] was > 100 µM, the TGI [41] was > 100 µM and the TGI [42] was > 100 µM. The TGI [43] was > 100 µM, the TGI [44] was > 100 µM and the TGI [45] was > 100 µM. The TGI [46] was > 100 µM, the TGI [47] was > 100 µM and the TGI [49] was > 100 µM. For the same molecule, the TGI [50] was > 100 µM, the TGI [51] was > 100 µM and the TGI [52] was > 100 µM. The TGI [53] was > 100 µM, the TGI [54] was > 100 µM and the TGI [55] was > 100 µM. The TGI [56] was > 100 µM.

From PubChem BioAssay (NCI)
